# Test results: ChEMBL document CHEMBL4808247 (Bioorg Med Chem, 2021)
# Experiments:
# Escherichia coli [1] = experiment: Antibacterial activity against Escherichia coli NIHJ JC-2 strain assessed as reduction in microbial growth incubated for 16 to 20 hrs in presence of vaborbactam by broth microdilution method; assay type: functional; settings: time 16-20 hrs
# Escherichia coli [2] = experiment: Antibacterial activity against Escherichia coli SR34100 producing class A beta lactamase, CTX-M-15 assessed as reduction in microbial growth incubated for 16 to 20 hrs in presence of vaborbactam by broth microdilution method; assay type: functional; settings: time 16-20 hrs
# Enterobacter cloacae [3] = experiment: Antibacterial activity against Enterobacter cloacae IR32 producing class B beta-lactamase, NDM-1 assessed as reduction in microbial growth incubated for 16 to 20 hrs in presence of vaborbactam by broth microdilution method; assay type: functional; settings: time 16-20 hrs
# Enterobacter cloacae [4] = experiment: Antibacterial activity against Enterobacter cloacae SR36276 producing class C beta-lactamase, AmpC assessed as reduction in microbial growth incubated for 16 to 20 hrs in presence of vaborbactam by broth microdilution method; assay type: functional; settings: time 16-20 hrs
# Klebsiella pneumoniae [5] = experiment: Antibacterial activity against Klebsiella pneumoniae PLE producing class D beta-lactamase, OXA-48 assessed as reduction in microbial growth incubated for 16 to 20 hrs in presence of vaborbactam by broth microdilution method; assay type: functional; settings: time 16-20 hrs
# Klebsiella pneumoniae [6] = experiment: Antibacterial activity against Klebsiella pneumoniae JMI:211 producing class A beta-lactamase, KPC-2 assessed as reduction in microbial growth incubated for 16 to 20 hrs in presence of vaborbactam by broth microdilution method; assay type: functional; settings: time 16-20 hrs
# Enterobacter cloacae [7] = experiment: Antibacterial activity against Enterobacter cloacae IR32 producing class B beta-lactamase, NDM1 assessed as reduction in microbial growth incubated for 16 to 20 hrs by broth microdilution method; assay type: functional; settings: time 16-20 hrs
# Escherichia coli [8] = experiment: Antibacterial activity against Escherichia coli NIHJ JC-2 assessed as reduction in microbial growth incubated for 16 to 20 hrs by broth microdilution method; assay type: functional; settings: time 16-20 hrs
# Escherichia coli [9] = experiment: Antibacterial activity against Escherichia coli SR34100 producing class A beta-lactamase, CTX-M-15 assessed as reduction in microbial growth incubated for 16 to 20 hrs by broth microdilution method; assay type: functional; settings: time 16-20 hrs
# Enterobacter cloacae [10] = experiment: Antibacterial activity against Enterobacter cloacae SR36276 producing class C beta-lactamase, AmpC assessed as reduction in microbial growth incubated for 16 to 20 hrs by broth microdilution method; assay type: functional; settings: time 16-20 hrs
# Klebsiella pneumoniae [11] = experiment: Antibacterial activity against Klebsiella pneumoniae PLE producing class D beta-lactamase, OXA-48 assessed as reduction in microbial growth incubated for 16 to 20 hrs by broth microdilution method; assay type: functional; settings: time 16-20 hrs
# Klebsiella pneumoniae [12] = experiment: Antibacterial activity against Klebsiella pneumoniae JMI:211 producing class A beta-lactamase, KPC-2 assessed as reduction in microbial growth incubated for 16 to 20 hrs by broth microdilution method; assay type: functional; settings: time 16-20 hrs
# [13] = Inhibition of CMY-2 in Escherichia coil BL21 assessed as inhibition of nitrocefin hydrolysis measured every 3 mins for 15 mins by UV spectrophotometer analysis; parameters: species or system Escherichia coli BL21
# Klebsiella pneumoniae [14] = experiment: Antibacterial activity against Klebsiella pneumoniae ATCC13883 assessed as reduction in microbial growth incubated for 16 to 20 hrs by broth microdilution method; assay type: functional; settings: time 16-20 hrs
# Enterobacter cloacae [15] = experiment: Antibacterial activity against Enterobacter cloacae 1,261,347 producing class A beta lactamase, PER-2 assessed as reduction in microbial growth incubated for 16 to 20 hrs by broth microdilution method; assay type: functional; settings: time 16-20 hrs
# Enterobacterales [16] = experiment: Antimicrobial activity against Enterobacterales producing KPC assessed as reduction in microbial growth measured after 16 to 20 hrs by broth microdilution method; assay type: functional; settings: time 16-20 hrs
# Enterobacterales [17] = experiment: Antimicrobial activity against Enterobacterales producing NDM assessed as reduction in microbial growth measured after 16 to 20 hrs by broth microdilution method; assay type: functional; settings: time 16-20 hrs
# Enterobacterales [18] = experiment: Antimicrobial activity against Enterobacterales producing VIM assessed as reduction in microbial growth measured after 16 to 20 hrs by broth microdilution method; assay type: functional; settings: time 16-20 hrs
# Enterobacterales [19] = experiment: Antimicrobial activity against Enterobacterales producing OXA-48 assessed as reduction in microbial growth measured after 16 to 20 hrs by broth microdilution method; assay type: functional; settings: time 16-20 hrs
# Klebsiella pneumoniae [20] = experiment: Antibacterial activity against Klebsiella pneumonia ATCC 13883 infected in cyclophosphamide-induced neutropenic Jcl:ICR mouse model assessed as log10 reduction in CFU at 10 mg/kg, sc administered at 2, 5 and 8 hrs after infection and measured at 10 hrs after infection; assay type: functional
# Klebsiella pneumoniae [21] = experiment: Antibacterial activity against Klebsiella pneumonia ATCC 13883 infected in cyclophosphamide-induced neutropenic Jcl:ICR mouse model assessed as log10 reduction in CFU at 3 mg/kg, sc administered at 2, 5 and 8 hrs after infection and measured at 10 hrs after infection; assay type: functional
# Escherichia coli [22] = experiment: Antibacterial activity against Escherichia coli BL21(DE3) transfected with pET9a vector harboring class D beta lactamase, OXA-48 incubated for 16 to 20 hrs by broth microdilution method; assay type: functional; settings: time 16-20 hrs
# Escherichia coli [23] = experiment: Antibacterial activity against Escherichia coli BL21(DE3) transfected with pET9a empty vector incubated for 16 to 20 hrs by broth microdilution method; assay type: functional; settings: time 16-20 hrs
# Escherichia coli [24] = experiment: Antibacterial activity against Escherichia coli BL21(DE3) transfected with pET9a vector harboring class A beta lactamase, CTX-M-15 incubated for 16 to 20 hrs by broth microdilution method; assay type: functional; settings: time 16-20 hrs
# Escherichia coli [25] = experiment: Antibacterial activity against Escherichia coli BL21(DE3) transfected with pET9a vector harboring class B beta lactamase, NDM-1 incubated for 16 to 20 hrs by broth microdilution method; assay type: functional; settings: time 16-20 hrs
# Escherichia coli [26] = experiment: Antibacterial activity against Escherichia coli BL21(DE3) transfected with pET9a vector harboring class C beta lactamase, AmpC incubated for 16 to 20 hrs by broth microdilution method; assay type: functional; settings: time 16-20 hrs
# [27] = Ratio of MIC for antibacterial activity against Escherichia coli BL21(DE3) transfected with pET9a vector harboring class B beta lactamase NDM-1 to MIC for antibacterial activity against Escherichia coli BL21(DE3); assay type: functional
# [28] = Ratio of MIC for antibacterial activity against Escherichia coli BL21(DE3) transfected with pET9a vector harboring class C beta lactamase AmpC to MIC for antibacterial activity against Escherichia coli BL21(DE3); assay type: functional
# [29] = Ratio of MIC for antibacterial activity against Escherichia coli BL21(DE3) transfected with pET9a vector harboring class A beta lactamase, CTX-M-15 to MIC for antibacterial activity against Escherichia coli BL21(DE3); assay type: functional
# [30] = Ratio of MIC for antibacterial activity against Escherichia coli BL21(DE3) transfected with pET9a vector harboring class D beta lactamase, OXA-48 to MIC for antibacterial activity against Escherichia coli BL21(DE3); assay type: functional
# Enterobacterales [31] = experiment: Antimicrobial activity against Enterobacterales producing KPC assessed as reduction in microbial growth measured after 16 to 20 hrs in presence of avibactam by broth microdilution method; assay type: functional; settings: time 16-20 hrs
# Enterobacterales [32] = experiment: Antimicrobial activity against Enterobacterales producing NDM assessed as reduction in microbial growth measured after 16 to 20 hrs in presence of avibactam by broth microdilution method; assay type: functional; settings: time 16-20 hrs
# Enterobacterales [33] = experiment: Antimicrobial activity against Enterobacterales producing VIM assessed as reduction in microbial growth measured after 16 to 20 hrs in presence of avibactam by broth microdilution method; assay type: functional; settings: time 16-20 hrs
# Enterobacterales [34] = experiment: Antimicrobial activity against Enterobacterales producing OXA-48 assessed as reduction in microbial growth measured after 16 to 20 hrs in presence of avibactam by broth microdilution method; assay type: functional; settings: time 16-20 hrs
# Escherichia coli [35] = experiment: Antibacterial activity against Escherichia coli NIHJ JC-2 strain assessed as reduction in microbial growth incubated for 16 to 20 hrs in presence of avibactam by broth microdilution method; assay type: functional; settings: time 16-20 hrs
# Escherichia coli [36] = experiment: Antibacterial activity against Escherichia coli SR34100 producing class A beta lactamase, CTX-M-15 assessed as reduction in microbial growth incubated for 16 to 20 hrs in presence of avibactam by broth microdilution method
# Enterobacter cloacae [37] = experiment: Antibacterial activity against Enterobacter cloacae IR32 producing class B beta-lactamase, NDM-1 assessed as reduction in microbial growth incubated for 16 to 20 hrs in presence of avibactam by broth microdilution method; assay type: functional; settings: time 16-20 hrs
# Enterobacter cloacae [38] = experiment: Antibacterial activity against Enterobacter cloacae SR36276 producing class C beta lactamase, AmpC assessed as reduction in microbial growth incubated for 16 to 20 hrs in presence of avibactam by broth microdilution method; assay type: functional; settings: time 16-20 hrs
# Klebsiella pneumoniae [39] = experiment: Antibacterial activity against Klebsiella pneumoniae PLE producing class D beta lactamase, OXA-48 assessed as reduction in microbial growth incubated for 16 to 20 hrs in presence of avibactam by broth microdilution method; assay type: functional; settings: time 16-20 hrs
# Klebsiella pneumoniae [40] = experiment: Antibacterial activity against Klebsiella pneumoniae JMI:211 producing class A beta lactamase, KPC-2 assessed as reduction in microbial, growth incubated for 16 to 20 hrs in presence of avibactam by broth microdilution method; assay type: functional; settings: time 16-20 hrs
# Enterobacter cloacae [41] = experiment: Antibacterial activity against Enterobacter cloacae 1,261,347 producing class A beta lactamase, PER-2 assessed as reduction in microbial growth incubated for 16 to 20 hrs in presence of avibactam by broth microdilution method; assay type: functional; settings: time 16-20 hrs
structure (smiles),measurement,setting,value
C[C@@H](O)[C@H]1C(=O)N2C(C(=O)O)=C(S[C@@H]3CN[C@H](C(=O)N(C)C)C3)[C@H](C)[C@H]12 [MEROPENEM],MIC,Escherichia coli [1],< 0.031 µg/mL
same,MIC,Escherichia coli [2],< 0.031 µg/mL
same,MIC,Enterobacter cloacae [3],16 µg/mL
same,MIC,Enterobacter cloacae [4],< 0.031 µg/mL
same,MIC,Klebsiella pneumoniae [5],1 µg/mL
same,MIC,Klebsiella pneumoniae [6],< 0.031 µg/mL
Nc1nc(/C(=N/OCC(=O)O)C(=O)N[C@@H]2C(=O)N3[C@@H]2[S@@+]([O-])C[C@@H]2CC(=O)O[C@@]23C(=O)O)cs1 (stereo in doubt),MIC,Enterobacter cloacae [7],0.063 µg/mL
same,MIC,Escherichia coli [8],0.063 µg/mL
same,MIC,Escherichia coli [9],0.125 µg/mL
same,MIC,Enterobacter cloacae [10],0.063 µg/mL
same,MIC,Klebsiella pneumoniae [11],0.125 µg/mL
same,MIC,Klebsiella pneumoniae [12],0.063 µg/mL
same,Ki,[13],> 60 µM
same,MIC,Klebsiella pneumoniae [14],0.125 µg/mL
same,MIC,Enterobacter cloacae [15],0.25 µg/mL
same,MIC50,Enterobacterales [16],0.25 µg/mL
same,MIC90,Enterobacterales [16],0.5 µg/mL
same,MIC50,Enterobacterales [17],0.25 µg/mL
same,MIC90,Enterobacterales [17],1 µg/mL
same,MIC50,Enterobacterales [18],0.25 µg/mL
same,MIC90,Enterobacterales [18],1 µg/mL
same,MIC50,Enterobacterales [19],0.125 µg/mL
same,MIC90,Enterobacterales [19],0.25 µg/mL
same,Activity,Klebsiella pneumoniae [20],2.46 log10CFU
same,Activity,Klebsiella pneumoniae [21],2.11 log10CFU
CC(C)(O/N=C(\C(=O)N[C@@H]1C(=O)N2[C@@H]1SC[C@@H]1CC(=O)O[C@@]12C(=O)O)c1csc(N)n1)C(=O)O (stereo in doubt),MIC,Enterobacter cloacae [7],0.5 µg/mL
same,MIC,Escherichia coli [22],0.5 µg/mL
same,MIC,Escherichia coli [23],0.5 µg/mL
same,MIC,Escherichia coli [24],0.5 µg/mL
same,MIC,Escherichia coli [25],0.5 µg/mL
same,MIC,Escherichia coli [26],1 µg/mL
same,Ratio,[27],<2
same,Ratio,[28],<2
same,MIC,Escherichia coli [8],0.5 µg/mL
same,MIC,Escherichia coli [9],1 µg/mL
same,MIC,Enterobacter cloacae [10],16 µg/mL
same,MIC,Klebsiella pneumoniae [11],2 µg/mL
same,MIC,Klebsiella pneumoniae [12],1 µg/mL
same,Ratio,[29],<2
same,Ratio,[30],<2
CC(C)(O/N=C(\C(=O)N[C@@H]1C(=O)N2C(C(=O)[O-])=C(C[n+]3ccccc3)CS[C@H]12)c1csc(N)n1)C(=O)O [CEFTAZIDIME],MIC,Enterobacter cloacae [7],> 32 µg/mL
same,MIC,Escherichia coli [22],0.063 µg/mL
same,MIC,Escherichia coli [23],0.063 µg/mL
same,MIC,Escherichia coli [24],0.25 µg/mL
same,MIC,Escherichia coli [25],> 16 µg/mL
same,MIC,Escherichia coli [26],0.25 µg/mL
same,MIC,Escherichia coli [8],0.25 µg/mL
same,MIC,Escherichia coli [9],> 32 µg/mL
same,MIC,Enterobacter cloacae [10],> 32 µg/mL
same,MIC,Klebsiella pneumoniae [11],1 µg/mL
same,MIC,Klebsiella pneumoniae [14],0.25 µg/mL
same,Activity,Klebsiella pneumoniae [20],3.05 log10CFU
same,Activity,Klebsiella pneumoniae [21],2.67 log10CFU
same,MIC50,Enterobacterales [31],4 µg/mL
same,MIC90,Enterobacterales [31],> 64 µg/mL
same,MIC50,Enterobacterales [32],> 64 µg/mL
same,MIC90,Enterobacterales [32],> 64 µg/mL
same,MIC50,Enterobacterales [33],> 64 µg/mL
same,MIC90,Enterobacterales [33],> 64 µg/mL
same,MIC50,Enterobacterales [34],0.125 µg/mL
same,MIC90,Enterobacterales [34],4 µg/mL
same,MIC,Escherichia coli [35],0.25 µg/mL
same,MIC,Escherichia coli [36],1 µg/mL
same,MIC,Enterobacter cloacae [37],> 32 µg/mL
same,MIC,Enterobacter cloacae [38],1 µg/mL
same,MIC,Klebsiella pneumoniae [39],0.25 µg/mL
same,MIC,Klebsiella pneumoniae [40],1 µg/mL
same,MIC,Enterobacter cloacae [41],> 32 µg/mL
